The text below walks through data of the METLIN SMRT retention time set (Domingo-Almenara et al. 2019).

The nature of this data set: gradient 5% acetonitrile 3 min, to 50% in 2 min, to 85% in 15 min, held 3 min, 100 µL/min. The following applies: column: Zorbax Extend-C18 2.1 x 50 mm; eluents: water / acetonitrile, 0.1% formic acid. In outline:
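In both positive and negative ionization mode, a quadrupole time-of-flight mass spectrometer coupled to HPLC analyzed pure standards run in mixtures of ~100 molecules. The Zorbax Extend-C18 column (2.1 × 50 mm, 1.8 μm) was operated at 100 μL/min with water and acetonitrile, each containing 0.1% formic acid. The dead volume was 40 μL and the dwell volume 900 μL. Retention time came from adduct peaks that were computationally picked and individually inspected by hand.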
Turning to `Cc1ccc2nc(NC(=O)C3CC(=O)N(c4n[nH]c5ccccc45)C3)sc2c1` (centres undefined), the RP-LC retention time was found to be 787 s.

On to `Cc1ccc(NC(=O)C2CCN(S(=O)(=O)c3ccc4c(c3)CCCC(=O)N4)CC2)cc1C`, for which the RP-LC retention time worked out at 814 s.

The molecule `Cc1cccc(NC(=O)Cn2ncc3c(c2=O)N(C2CC2)C(=O)CS3)c1C` came in with an RP-LC retention time of 714 s.

For the molecule `COC(=O)C1=CN(c2cc(Cl)c(OC)cc2OC)c2cc(F)ccc2S1(=O)=O`, the RP-LC retention time was 918 s.

For `CCc1nc(-c2csc(S(=O)(=O)N3CCC(C(=O)N4CCCCCC4)CC3)c2)no1`, the RP-LC retention time was found to be 955 s.

Regarding `Cc1cccc2nnc(N3CCCC(C(=O)Nc4ccc5c(c4)OCCO5)C3)n12` (centres undefined), the RP-LC retention time was 669 s.

The molecule `CCN1CCN(c2cc(C(=O)O)c3cc(NS(=O)(=O)c4cc(F)ccc4F)ccc3n2)CC1` registered an RP-LC retention time of 594 s.

With `Cc1cc(C)cc(NC(=O)c2cc(C(C)C)n3nccc3n2)c1`, the RP-LC retention time was 1260 s.

`O=C(CCn1cnc2cc(-c3noc(Cc4cccc(F)c4)n3)ccc21)N1CCCC1` had an RP-LC retention time of 726 s.

The molecule `COc1ccc(N2CCN(c3cc(SCC(=O)Nc4ccc(OC)c(OC)c4)ncn3)CC2)cc1` came in with an RP-LC retention time of 791 s.

As to `O=c1ccc(N2CCCN(S(=O)(=O)c3ccc(F)c(Cl)c3)CC2)nn1-c1ccccc1`, the RP-LC retention time is 911 s.

`Cn1nc(-c2nc(Cc3ccccc3)no2)c2c1CCN(C(=O)C(C)(C)C)C2` returned an RP-LC retention time of 937 s.

Molecule `COc1ccc(CC(=O)Nc2nc3ccc(S(=O)(=O)NC(C)C)cc3s2)cc1OC` returned an RP-LC retention time of 730 s.

As for `CCN1c2ccccc2C(=O)NC12CCN(C(=O)c1ccccc1OC)CC2`, the RP-LC retention time worked out at 732 s.

For the molecule `CC(C)(Oc1ccc(Cl)cc1)C(=O)Nc1nnc(C2CC(=O)N(c3ccccc3)C2)o1` (centres undefined), the RP-LC retention time came to 793 s.

Molecule `Cc1c(C(=O)C(=O)Nc2ccc(C(N)=O)cc2)c2ccccc2n1C` had an RP-LC retention time of 686 s.

Turning to `O=C(Nc1nc(C(=O)NCc2nc(-c3ccccc3)no2)co1)c1ccsc1`, the RP-LC retention time turned out to be 707 s.

With `COC(=O)c1cccc(N2C=C(C#N)S(=O)(=O)c3c(F)cccc32)c1`, the RP-LC retention time came to 847 s.

Regarding `c1ccc(-c2nnc(-c3nc(NCCc4cccs4)c4ccccc4n3)o2)cc1`, the RP-LC retention time came out at 1040 s.

`CCOc1ccccc1CNC(=O)Cc1csc2nc(-c3ccccc3)cn12` showed an RP-LC retention time of 830 s.

Turning to `CCn1nccc1C(=O)N1CCC2(CC1)C(=O)N(C)c1ccccc12`, the RP-LC retention time stood at 630 s.

Molecule `CCCCNC(=O)C1CCCN(C(=O)c2cc(C)cc(C)c2)C1` (centres undefined) came in with an RP-LC retention time of 828 s.

Molecule `O=C(c1ccc(OCC2CCCN(C(=O)C3CCCC3)C2)cc1)N1CCOCC1` (centres undefined) gave an RP-LC retention time of 750 s.

Take `O=C(Cn1c(=O)c2nncn2c2ncccc21)NCc1ccc(Cl)cc1`: the RP-LC retention time amounted to 671 s.

In the case of `Cc1ccc(Nc2c(-c3ccc(Cl)cc3)nc3ccccn23)cc1`, the RP-LC retention time stood at 787 s.

Consider `CCOc1ccc(-c2cc3c(=O)n(Cc4nc(-c5ccccc5Cl)no4)ncn3n2)cc1`, for which the RP-LC retention time came to 1150 s.

`Cc1ccc(C)c(S(=O)(=O)N2CCc3c(c(-c4nnc(-c5ccccc5F)o4)nn3C)C2)c1` registered an RP-LC retention time of 1010 s.

For the molecule `COc1ccc(-c2noc(CN3N=NC4C(=O)N(c5ccc(OC)c(OC)c5)C(=O)C43)n2)cc1OC` (centres undefined), the RP-LC retention time was determined as 798 s.

With `COCCn1ccc2c(OCC(=O)N(C(C)C)C(C)C)cccc2c1=O`, the RP-LC retention time is 798 s.

`COC1CN(c2cccc(F)c2)C12CCN(Cc1ccc(C)o1)CC2` (centres undefined): the RP-LC retention time turned out to be 745 s.

`O=C(NCc1cscn1)C1CCN(S(=O)(=O)c2ccc(Cl)s2)CC1` gave an RP-LC retention time of 739 s.

`CC(C)NC(=O)c1ccc(OCC2CCCN(C(=O)c3ccc(F)c(Cl)c3)C2)cc1` (centres undefined) registered an RP-LC retention time of 915 s.

On to `Cn1c(=O)n([C@H]2CCCN(C(=O)Nc3ccc(F)cc3F)C2)c2ncccc21`, for which the RP-LC retention time stood at 752 s.

For `CC1CCCN(CCCNC(=O)c2nnc(-c3ccc(S(=O)(=O)N4CCCC4)cc3)o2)C1` (centres undefined), the RP-LC retention time turned out to be 642 s.

In the case of `COc1ccc(S(=O)(=O)N2[C@H]3CC[C@@H]2c2cncnc2C3)cc1`, the RP-LC retention time is 715 s.

Take `Cc1cc(F)ccc1NC(=O)CN1C(=O)C2CCCCN2c2ccc(S(=O)(=O)N(C)C)cc21` (centres undefined): the RP-LC retention time is 896 s.

Molecule `COc1ccc(CCC(=O)NCCCN2CCOC(c3ccccc3)C2)cc1` (centres undefined) registered an RP-LC retention time of 570 s.

The molecule `CCn1cnc(S(=O)(=O)N2CCC(C(=O)NC3CCCCCCC3)CC2)c1` yielded an RP-LC retention time of 769 s.

Take `O=C(CSCc1ccccc1)N1CCC(Cn2cccn2)CC1`: the RP-LC retention time is 721 s.

On to `CCc1noc(-c2nc(-c3ccc(OC)cc3)no2)n1`, for which the RP-LC retention time was 986 s.

As to `O=C(C1CCN(S(=O)(=O)N2CCOCC2)CC1)N1CCC(c2nc(C3CCOCC3)no2)C1` (centres undefined), the RP-LC retention time came out at 656 s.

Molecule `Cn1c(C(=O)N2CCN(c3ccccc3)CC2)cc2c(=O)oc3ccccc3c21` yielded an RP-LC retention time of 905 s.

`N#CCCN1CCN(c2ccc(NC(=O)c3ccc(Br)cc3)c(C(=O)O)c2)CC1` showed an RP-LC retention time of 678 s.

Molecule `O=C(O)c1cccc(Nc2c(-c3cccc(Cl)c3)nc3cnccn23)c1` registered an RP-LC retention time of 737 s.

In the case of `CN(C)c1nccnc1OC1CCN(C(=O)c2ccn[nH]2)C1` (centres undefined), the RP-LC retention time was 604 s.

`CC(C)Cn1cc(S(=O)(=O)Nc2ccc(Cl)cc2F)c2cccnc21` had an RP-LC retention time of 1010 s.

The molecule `Cc1ccc(Nc2c(-c3ccc(O)cc3)nc3ncccn23)cc1Cl` gave an RP-LC retention time of 690 s.

Regarding `Cc1csc(-c2cc(S(=O)(=O)Nc3ccc(F)cc3F)cn2CC(=O)N2CCCC2)n1`, the RP-LC retention time is 880 s.

On to `COc1ccc(-c2noc(-c3ccc(N4CCN(C(=O)c5ccco5)CC4)nc3)n2)cc1`, for which the RP-LC retention time stood at 989 s.

On to `Cc1nn(-c2ccc(C(=O)NC(C)C)cc2)c2c1C(=O)CC(C)(C)C2`, for which the RP-LC retention time stood at 775 s.

Molecule `CS(=O)(=O)N1CCCC(C(=O)NC2CCCC2)CCNC(=O)CC1` (centres undefined) gave an RP-LC retention time of 603 s.

The molecule `O=C(Nc1ccc2c(c1)OCO2)N1CCC(N2CCN(Cc3ccc(F)cc3)C2=O)CC1` showed an RP-LC retention time of 788 s.

In the case of `CCOc1ccc(C(=O)NC(C)C(=O)Nc2nc3ccccc3[nH]2)cc1` (centres undefined), the RP-LC retention time was determined as 640 s.

`CCOC(=O)c1noc2nc(C)nc(NCC3CCN(Cc4cccc(C)c4)CC3)c12` gave an RP-LC retention time of 609 s.

Turning to `Cc1ccc(C)c(CNC(=O)c2ccc3ncnc(N4CCCC4)c3c2)c1`, the RP-LC retention time was determined as 678 s.

In turn, `Cc1cnn(Cc2cc(C(=O)N3C[C@@H](CO)[C@H](N(C)C)C3)no2)c1` returned an RP-LC retention time of 566 s.

`CCNc1cc(N2CCCC(CCC(=O)N3CCCC(C(=O)OCC)C3)C2)ncn1` (centres undefined) displayed an RP-LC retention time of 664 s.

Regarding `O=C(Cn1ccc2ccc(N3CCOCC3)nc21)N1CCN(c2ccccc2)CC1`, the RP-LC retention time was 879 s.

As for `COc1ccc(S(=O)(=O)Nc2cc3sc(=O)oc3c3ccccc23)cc1`, the RP-LC retention time was 894 s.

Molecule `COC(=O)c1cn(Cc2ccc(OC)c(F)c2)nc1S(=O)(=O)N1CCCCC1` displayed an RP-LC retention time of 945 s.

For `COc1ccccc1-c1nc(-c2ccc3nnn(C)c3c2)no1`, the RP-LC retention time was 923 s.

For the molecule `Cc1cc(C)n2c(Nc3cccc(C(F)(F)F)c3)c(-c3ccc(O)cc3)nc2n1`, the RP-LC retention time came to 697 s.

`Cc1ccc(CNC(=O)CN2C(=O)C3CCCCN3c3ccc(C(=O)N4CCCC4)cc32)o1` (centres undefined): the RP-LC retention time amounted to 664 s.

The molecule `COc1cccc(-c2noc(CN3C(=O)COc4ccc(C(C)(C)C)cc43)n2)c1` registered an RP-LC retention time of 1250 s.

In turn, `COc1cccc(Cn2c(=O)c3sccc3n(Cc3nc(-c4ccccc4C)no3)c2=O)c1` gave an RP-LC retention time of 1150 s.

Turning to `COc1cccc(CNC(=O)CN2C(=O)CSc3cccn3-c3ccccc32)c1`, the RP-LC retention time was determined as 846 s.

On to `CCOC(=O)C(C)Sc1nnc(NC(=O)C2CC2)s1` (centres undefined), for which the RP-LC retention time amounted to 708 s.

Molecule `Cn1c(N2CCCC(C(=O)NCc3ccccc3)C2)cc(=O)n(C)c1=O` (centres undefined) displayed an RP-LC retention time of 662 s.

`O=C(NCc1ccco1)c1ccc(Cn2nc(N3CCN(c4ccc(F)cc4)CC3)ccc2=O)o1` registered an RP-LC retention time of 820 s.

As to `CCn1cc(CN2CC(Oc3ccc(-c4noc(-c5ccncc5)n4)cc3)C2)cn1`, the RP-LC retention time amounted to 633 s.

In the case of `Oc1cccc(-c2nc3cnc(Br)cn3c2Nc2ccc3c(c2)OCCO3)c1`, the RP-LC retention time was 794 s.

For the molecule `CCNC(=O)c1cc(=O)[nH]c2c(Cl)cccc12`, the RP-LC retention time stood at 614 s.

On to `Cc1c(C(=O)NC2CCCCC2)cnn1-c1cc(-c2nc(C3CC3)no2)ccn1`, for which the RP-LC retention time is 1060 s.

In turn, `COc1cccc(/C=C/c2nc(-c3ccc4oc(C)nc4c3)no2)c1` gave an RP-LC retention time of 1110 s.

For `CCc1cc(C(=O)Nc2ccccc2OC)nc2ccnn12`, the RP-LC retention time turned out to be 1090 s.

Molecule `O=C(CCSCc1ccccc1F)N1CCN(c2ccccn2)CC1` returned an RP-LC retention time of 645 s.

`CN(C)C[C@@H]1CN(c2ncccn2)C[C@H]1NC(=O)NCCc1ccccc1`: the RP-LC retention time was 600 s.

`CN1C(=O)Cc2ccccc2C1C(=O)NCc1cccc(F)c1` (centres undefined) showed an RP-LC retention time of 729 s.

Turning to `O=C(Cn1c(=O)oc2ccc(Cl)cc21)NC1CCCCC1`, the RP-LC retention time is 878 s.
